What all share (format): biochemical
One test has as its target T1, FGFR1(h) (Homo sapiens, UniProt P11362).
T1 construct: purchased Millipore Upstate Ltd
Nature of the test: in vitro tyrosine kinase inhibition, FGFR1(h). The text has this: (§1) Several in vitro tyrosine kinase inhibition activities can be measured according to the description in Rewcastle, G W, J. Med. Chem. 1996, 39, 918-928 and Edwards M, International Biotechnology Lab 5 (3), 19-25, 1987. Oncogene, 1990, 5: 519-524. The Baculovirus Expression System: A Laboratory Guide, L. A. King 1992. Sambrook et al, 1989, Molecular cloning—A Laboratory Manual, 2nd edition, Cold Spring Harbour Laboratory Press. O'Reilly et al, 1992, Baculovirus Expression Vectors—A Laboratory Manual, W. H. Freeman and Co, New York.
(§2) Receptor tyrosine kinase can be obtained in partially purified form from A-431 cells similar to those described by Carpenter et al., J. Biol. Chem., 1979, 254, 4884, Cohen et al., J. Biol. Chem., 1982, 257, 1523 and by Braun et al., J. Biol. Chem., 1984, 259, 2051. Some of these tests can also be contracted with Millipore Upstate Ltd for screening.

Another test concerns the target T2, Flt4(h) (Homo sapiens, UniProt P35916).
T2 construct: purchased Millipore Upstate Ltd
The experiment in a line: in vitro tyrosine kinase inhibition, Flt4(h).
Source text: as §1, §2

Another test has as its target T3, Flt1(h) (Homo sapiens, UniProt P17948).
T3 construct: purchased Millipore Upstate Ltd
The experiment in a line: in vitro tyrosine kinase inhibition, Flt1(h).
Source text: as §1, §2

The target in the next test is T4, KDR(h) (Homo sapiens, UniProt P35968).
T4 construct: purchased Millipore Upstate Ltd
The experiment in a line: in vitro tyrosine kinase inhibition, KDR(h).
Source text: as §1, §2

Molecules are shown by their SMILES.

T3 sequence (P17948 27-1338): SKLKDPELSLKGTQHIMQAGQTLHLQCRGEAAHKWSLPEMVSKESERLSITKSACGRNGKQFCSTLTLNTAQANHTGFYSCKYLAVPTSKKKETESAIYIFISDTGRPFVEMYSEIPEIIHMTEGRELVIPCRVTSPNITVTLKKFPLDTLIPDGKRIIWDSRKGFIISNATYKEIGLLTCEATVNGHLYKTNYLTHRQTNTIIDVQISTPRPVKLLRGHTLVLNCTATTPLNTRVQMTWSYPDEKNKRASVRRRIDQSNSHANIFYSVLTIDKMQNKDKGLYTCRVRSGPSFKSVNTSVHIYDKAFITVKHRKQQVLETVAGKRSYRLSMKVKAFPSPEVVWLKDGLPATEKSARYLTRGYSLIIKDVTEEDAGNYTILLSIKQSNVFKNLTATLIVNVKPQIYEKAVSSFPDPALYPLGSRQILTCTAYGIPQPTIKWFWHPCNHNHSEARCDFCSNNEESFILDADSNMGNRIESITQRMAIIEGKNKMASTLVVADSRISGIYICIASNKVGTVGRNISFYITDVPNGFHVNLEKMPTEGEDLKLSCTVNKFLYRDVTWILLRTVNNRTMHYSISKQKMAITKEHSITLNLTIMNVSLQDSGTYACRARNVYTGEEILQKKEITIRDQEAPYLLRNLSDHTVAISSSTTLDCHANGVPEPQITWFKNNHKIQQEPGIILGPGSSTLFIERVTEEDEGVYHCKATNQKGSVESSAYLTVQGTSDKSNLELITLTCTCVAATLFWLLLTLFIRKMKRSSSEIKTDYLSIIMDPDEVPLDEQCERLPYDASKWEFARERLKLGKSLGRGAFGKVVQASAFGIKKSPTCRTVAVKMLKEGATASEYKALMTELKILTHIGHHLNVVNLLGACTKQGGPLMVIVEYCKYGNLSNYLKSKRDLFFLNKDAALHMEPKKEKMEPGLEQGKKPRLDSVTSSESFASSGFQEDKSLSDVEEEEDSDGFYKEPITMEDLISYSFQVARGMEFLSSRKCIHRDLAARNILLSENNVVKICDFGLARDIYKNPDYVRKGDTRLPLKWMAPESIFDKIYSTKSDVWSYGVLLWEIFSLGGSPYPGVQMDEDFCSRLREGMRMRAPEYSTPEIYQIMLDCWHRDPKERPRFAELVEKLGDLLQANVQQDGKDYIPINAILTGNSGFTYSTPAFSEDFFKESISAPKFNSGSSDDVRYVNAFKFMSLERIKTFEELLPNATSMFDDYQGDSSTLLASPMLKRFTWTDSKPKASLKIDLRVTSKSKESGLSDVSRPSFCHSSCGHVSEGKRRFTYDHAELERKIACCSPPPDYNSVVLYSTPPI
T2 sequence (P35916 25-1363): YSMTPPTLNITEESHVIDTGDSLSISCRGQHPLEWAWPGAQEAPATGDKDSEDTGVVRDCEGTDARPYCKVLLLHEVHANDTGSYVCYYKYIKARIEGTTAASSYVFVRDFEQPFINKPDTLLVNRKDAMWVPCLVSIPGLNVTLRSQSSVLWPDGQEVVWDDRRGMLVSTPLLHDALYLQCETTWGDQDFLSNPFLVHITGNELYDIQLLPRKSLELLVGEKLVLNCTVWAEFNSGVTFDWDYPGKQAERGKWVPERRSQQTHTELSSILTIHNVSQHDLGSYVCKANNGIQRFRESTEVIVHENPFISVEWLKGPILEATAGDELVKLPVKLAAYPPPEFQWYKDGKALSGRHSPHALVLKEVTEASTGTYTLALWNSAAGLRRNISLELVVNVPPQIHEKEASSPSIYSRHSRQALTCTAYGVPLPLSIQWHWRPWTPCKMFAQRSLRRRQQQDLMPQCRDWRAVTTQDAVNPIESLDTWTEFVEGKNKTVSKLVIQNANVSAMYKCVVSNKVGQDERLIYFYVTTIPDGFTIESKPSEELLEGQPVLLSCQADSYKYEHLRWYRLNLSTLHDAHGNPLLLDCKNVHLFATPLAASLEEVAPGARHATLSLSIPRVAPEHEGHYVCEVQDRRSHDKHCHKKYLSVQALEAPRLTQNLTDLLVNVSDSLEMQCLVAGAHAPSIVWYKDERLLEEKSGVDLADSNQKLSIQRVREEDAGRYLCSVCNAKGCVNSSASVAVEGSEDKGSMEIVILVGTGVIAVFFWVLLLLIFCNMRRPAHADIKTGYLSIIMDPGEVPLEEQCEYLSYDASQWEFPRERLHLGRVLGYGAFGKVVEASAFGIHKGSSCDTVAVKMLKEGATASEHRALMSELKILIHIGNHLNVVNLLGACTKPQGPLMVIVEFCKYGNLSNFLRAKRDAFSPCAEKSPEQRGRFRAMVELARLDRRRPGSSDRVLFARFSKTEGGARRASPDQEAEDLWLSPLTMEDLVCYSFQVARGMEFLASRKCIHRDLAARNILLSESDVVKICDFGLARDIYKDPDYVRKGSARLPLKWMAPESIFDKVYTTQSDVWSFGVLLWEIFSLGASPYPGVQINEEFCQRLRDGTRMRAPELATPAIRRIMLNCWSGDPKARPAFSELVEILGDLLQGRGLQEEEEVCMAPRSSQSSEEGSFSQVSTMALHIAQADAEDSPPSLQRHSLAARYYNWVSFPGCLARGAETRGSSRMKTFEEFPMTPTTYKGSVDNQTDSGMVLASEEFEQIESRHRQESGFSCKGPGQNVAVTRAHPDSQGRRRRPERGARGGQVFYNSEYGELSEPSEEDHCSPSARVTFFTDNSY
T1 sequence (P11362 22-822): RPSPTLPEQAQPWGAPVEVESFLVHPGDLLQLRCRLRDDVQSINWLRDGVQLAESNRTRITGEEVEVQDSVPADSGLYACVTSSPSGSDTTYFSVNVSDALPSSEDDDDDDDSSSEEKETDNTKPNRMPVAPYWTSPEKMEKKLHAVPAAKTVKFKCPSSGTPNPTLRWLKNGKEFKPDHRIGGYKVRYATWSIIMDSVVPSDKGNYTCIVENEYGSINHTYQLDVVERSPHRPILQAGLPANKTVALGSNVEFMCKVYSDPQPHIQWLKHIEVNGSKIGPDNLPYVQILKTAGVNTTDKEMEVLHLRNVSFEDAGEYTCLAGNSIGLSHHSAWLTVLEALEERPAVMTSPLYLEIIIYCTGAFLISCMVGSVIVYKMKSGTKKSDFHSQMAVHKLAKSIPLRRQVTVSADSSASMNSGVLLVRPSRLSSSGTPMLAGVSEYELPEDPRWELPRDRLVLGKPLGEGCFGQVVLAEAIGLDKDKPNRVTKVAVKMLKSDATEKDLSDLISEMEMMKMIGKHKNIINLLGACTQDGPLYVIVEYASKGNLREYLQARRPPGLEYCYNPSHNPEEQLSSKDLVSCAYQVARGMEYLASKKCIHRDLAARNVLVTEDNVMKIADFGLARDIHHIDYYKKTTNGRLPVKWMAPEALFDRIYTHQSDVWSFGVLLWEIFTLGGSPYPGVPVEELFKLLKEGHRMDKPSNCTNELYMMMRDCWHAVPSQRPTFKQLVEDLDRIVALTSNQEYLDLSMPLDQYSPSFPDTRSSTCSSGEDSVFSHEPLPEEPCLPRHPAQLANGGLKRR
T4 sequence (P35968 20-1356): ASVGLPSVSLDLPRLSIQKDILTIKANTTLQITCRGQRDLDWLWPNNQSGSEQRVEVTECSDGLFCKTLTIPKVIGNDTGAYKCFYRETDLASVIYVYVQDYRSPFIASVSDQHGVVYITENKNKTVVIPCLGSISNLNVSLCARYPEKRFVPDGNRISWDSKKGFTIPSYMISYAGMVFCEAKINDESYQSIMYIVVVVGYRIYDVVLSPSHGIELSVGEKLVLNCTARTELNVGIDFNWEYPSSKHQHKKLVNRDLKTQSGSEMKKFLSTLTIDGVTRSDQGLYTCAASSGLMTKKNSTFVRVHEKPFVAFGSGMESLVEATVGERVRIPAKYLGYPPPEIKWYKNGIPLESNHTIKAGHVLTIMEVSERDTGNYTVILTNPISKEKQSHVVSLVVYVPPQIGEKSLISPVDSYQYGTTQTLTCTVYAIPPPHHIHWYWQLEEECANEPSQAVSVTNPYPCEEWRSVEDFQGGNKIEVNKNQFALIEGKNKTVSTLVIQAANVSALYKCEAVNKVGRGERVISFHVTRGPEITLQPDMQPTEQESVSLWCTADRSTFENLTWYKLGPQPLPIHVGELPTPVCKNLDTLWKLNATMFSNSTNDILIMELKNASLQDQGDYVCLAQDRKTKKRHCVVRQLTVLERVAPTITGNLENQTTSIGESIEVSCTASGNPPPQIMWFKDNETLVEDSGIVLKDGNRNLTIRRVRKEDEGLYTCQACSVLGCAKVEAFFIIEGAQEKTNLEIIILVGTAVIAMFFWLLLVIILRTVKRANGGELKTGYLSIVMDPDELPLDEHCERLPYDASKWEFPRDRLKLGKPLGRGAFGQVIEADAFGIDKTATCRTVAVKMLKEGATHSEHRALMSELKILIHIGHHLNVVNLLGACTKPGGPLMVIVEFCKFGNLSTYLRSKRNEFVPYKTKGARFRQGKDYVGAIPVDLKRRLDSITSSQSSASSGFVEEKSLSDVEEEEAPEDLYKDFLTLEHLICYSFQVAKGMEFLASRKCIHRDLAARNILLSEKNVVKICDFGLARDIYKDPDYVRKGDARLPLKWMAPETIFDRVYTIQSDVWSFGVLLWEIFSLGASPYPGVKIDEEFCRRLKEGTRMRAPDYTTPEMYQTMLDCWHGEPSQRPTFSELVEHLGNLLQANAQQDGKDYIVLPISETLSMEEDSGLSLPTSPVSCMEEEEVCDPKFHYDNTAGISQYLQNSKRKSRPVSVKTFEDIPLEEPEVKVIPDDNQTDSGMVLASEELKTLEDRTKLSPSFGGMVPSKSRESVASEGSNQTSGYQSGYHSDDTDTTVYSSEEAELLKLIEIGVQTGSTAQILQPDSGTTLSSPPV

As usually defined, the IC50 is the concentration at which inhibition is half-maximal. A low value points to greater potency in that assay. Regarding `COc1cc2c(Oc3ccc4[nH]c(C)cc4c3F)ccnc2cc1OCC1(N)CC1` [AL3818], the IC50 against FGFR1(h) was 0.02 µM; against Flt4(h), 0.001 µM; at Flt1(h), 0.004 µM; against KDR(h) it was 0.045 µM.

The values above are taken from patent US8148532B2, “Spiro substituted compounds as angiogenesis inhibitors” (priority 2007, dated 2012).
